Test results as given in ChEMBL document CHEMBL1201862, “PubChem BioAssay data set” (2004).
Active and inactive are the calls of the source.

What was measured:
A-375 [1] = assay: MITF: Counter assay: A375 proliferation Measured in Cell-Based System Using Plate Reader - 2084-03_Inhibitor_Dose_DryPowder_Activity. [Related pubchem assays (depositor defined):AID488944]; format: functional; details: Homo sapiens
[2] = biological target: T1, Microphthalmia-associated transcription factor (Homo sapiens, UniProt O75030); assay: reducers of TRPM1 reporter luminescence, concentration series – cell-based, SK-MEL-5, cherry-picked, set 3, MITF inhibitor project, dose response (AID 493073); format: functional;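 also: SK-MEL-5 melanoma cells with luciferase driven by the MITF target TRPM1 promoter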
T1 sequence (O75030 whole entry): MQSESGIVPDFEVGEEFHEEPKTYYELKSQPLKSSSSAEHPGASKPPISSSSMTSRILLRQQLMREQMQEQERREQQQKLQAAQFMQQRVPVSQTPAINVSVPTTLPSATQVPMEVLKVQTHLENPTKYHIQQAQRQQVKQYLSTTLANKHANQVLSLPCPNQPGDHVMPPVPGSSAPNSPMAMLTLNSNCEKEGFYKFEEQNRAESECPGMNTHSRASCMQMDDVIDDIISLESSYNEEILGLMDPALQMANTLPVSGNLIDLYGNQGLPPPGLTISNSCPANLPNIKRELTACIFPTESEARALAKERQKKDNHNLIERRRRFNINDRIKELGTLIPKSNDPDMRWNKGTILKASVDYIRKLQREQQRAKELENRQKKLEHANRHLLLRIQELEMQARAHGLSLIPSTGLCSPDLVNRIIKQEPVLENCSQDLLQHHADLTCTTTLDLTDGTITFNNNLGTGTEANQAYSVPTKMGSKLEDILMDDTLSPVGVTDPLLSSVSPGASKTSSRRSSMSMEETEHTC

A-375 [3] = assay: proliferation inhibition in MITF-low A375 cells – cell-based, cherry-pick samples, set 2, counter-screen for MITF modulator project, dose response (AID 540335); format: functional; details: Homo sapiens
[4] = biological target: T2, Replicative DNA helicase DnaB (Mycobacterium tuberculosis, UniProt P9WMR3); assay: DnaB intein splicing inhibitors, dose response, biochemical, cell-free fluorescence (AID 449749); format: functional
T2 sequence (P9WMR3 whole entry): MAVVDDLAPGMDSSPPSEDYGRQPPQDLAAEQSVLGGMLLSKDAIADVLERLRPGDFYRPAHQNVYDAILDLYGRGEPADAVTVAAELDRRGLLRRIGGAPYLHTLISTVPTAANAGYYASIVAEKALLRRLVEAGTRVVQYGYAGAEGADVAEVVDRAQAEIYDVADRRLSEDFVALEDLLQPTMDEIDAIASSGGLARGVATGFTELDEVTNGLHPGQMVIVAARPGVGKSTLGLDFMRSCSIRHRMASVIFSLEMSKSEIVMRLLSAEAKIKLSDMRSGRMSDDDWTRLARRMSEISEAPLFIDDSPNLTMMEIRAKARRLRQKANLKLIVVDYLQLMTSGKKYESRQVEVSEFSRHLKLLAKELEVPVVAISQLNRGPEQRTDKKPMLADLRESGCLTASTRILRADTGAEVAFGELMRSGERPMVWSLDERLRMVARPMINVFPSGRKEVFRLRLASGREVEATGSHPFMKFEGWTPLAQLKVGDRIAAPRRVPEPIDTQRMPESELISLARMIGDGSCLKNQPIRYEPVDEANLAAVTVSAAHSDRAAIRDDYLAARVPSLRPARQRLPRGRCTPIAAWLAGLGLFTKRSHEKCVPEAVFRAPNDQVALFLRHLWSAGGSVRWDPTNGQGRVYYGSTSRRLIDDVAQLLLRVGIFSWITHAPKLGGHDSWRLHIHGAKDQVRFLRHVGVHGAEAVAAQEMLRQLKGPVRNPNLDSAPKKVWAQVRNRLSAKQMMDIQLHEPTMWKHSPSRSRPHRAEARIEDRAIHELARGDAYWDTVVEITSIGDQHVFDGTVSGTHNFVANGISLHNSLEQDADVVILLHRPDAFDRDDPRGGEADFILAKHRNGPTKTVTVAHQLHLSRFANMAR

Protein RecA = biological target: T3, Protein RecA (Mycobacterium tuberculosis, UniProt P9WHJ3); assay: Fluorescence Cell-Free Homogeneous Dose Retest to Identify Inhibitors of RecA-Intein Splicing Activity. [Related pubchem assays (depositor defined):AID2097, AID2223, AID489010, AID492950]; format: functional
T3 sequence (P9WHJ3 whole entry): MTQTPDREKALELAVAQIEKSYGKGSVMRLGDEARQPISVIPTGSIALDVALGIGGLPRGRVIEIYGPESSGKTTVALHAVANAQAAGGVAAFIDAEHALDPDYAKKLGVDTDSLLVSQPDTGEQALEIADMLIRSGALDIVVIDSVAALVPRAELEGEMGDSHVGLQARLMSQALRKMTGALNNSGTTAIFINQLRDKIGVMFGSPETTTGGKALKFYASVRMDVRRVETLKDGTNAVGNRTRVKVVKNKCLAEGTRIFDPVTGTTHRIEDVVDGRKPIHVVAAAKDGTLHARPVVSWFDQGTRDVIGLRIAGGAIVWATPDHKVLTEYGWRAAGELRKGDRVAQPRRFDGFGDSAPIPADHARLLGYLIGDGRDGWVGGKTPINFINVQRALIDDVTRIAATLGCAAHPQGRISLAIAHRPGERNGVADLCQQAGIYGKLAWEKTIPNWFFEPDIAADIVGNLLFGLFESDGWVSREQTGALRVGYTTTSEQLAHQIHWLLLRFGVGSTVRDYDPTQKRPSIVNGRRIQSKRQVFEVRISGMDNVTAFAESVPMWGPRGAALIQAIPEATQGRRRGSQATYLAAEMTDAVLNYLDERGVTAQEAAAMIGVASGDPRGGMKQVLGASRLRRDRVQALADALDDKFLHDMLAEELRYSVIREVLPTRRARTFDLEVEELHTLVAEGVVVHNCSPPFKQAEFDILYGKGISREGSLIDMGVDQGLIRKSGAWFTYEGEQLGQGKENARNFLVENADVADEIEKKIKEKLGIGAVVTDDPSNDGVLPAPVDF

BJ [5] = assay: BJ-TERT fibroblast viability loss – cell-based, RAS-independent, luminescence, dose response (AID 1933); format: functional; details: Homo sapiens
BJ [6] = assay: BJ-TERT-LT-ST fibroblast viability loss – cell-based, RAS-independent, luminescence, dose response (AID 1935); format: functional; details: Homo sapiens;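 also: BJ fibroblasts immortalized with TERT plus LT and ST oncogenes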
BJ [7] = assay: cells; format: functional, cell-based; details: Homo sapiens
[8] = DRD fibroblast viability loss – cell-based, non-viral oncogenic, luminescence, dose response (AID 1934); format: functional; details: Homo sapiens
Beta-galactosidase = Beta-galactosidase (Escherichia coli, UniProt Q8VNN2); assay: PubChem AID 485352; format: functional
Sequence of Beta-galactosidase (Q8VNN2 whole entry): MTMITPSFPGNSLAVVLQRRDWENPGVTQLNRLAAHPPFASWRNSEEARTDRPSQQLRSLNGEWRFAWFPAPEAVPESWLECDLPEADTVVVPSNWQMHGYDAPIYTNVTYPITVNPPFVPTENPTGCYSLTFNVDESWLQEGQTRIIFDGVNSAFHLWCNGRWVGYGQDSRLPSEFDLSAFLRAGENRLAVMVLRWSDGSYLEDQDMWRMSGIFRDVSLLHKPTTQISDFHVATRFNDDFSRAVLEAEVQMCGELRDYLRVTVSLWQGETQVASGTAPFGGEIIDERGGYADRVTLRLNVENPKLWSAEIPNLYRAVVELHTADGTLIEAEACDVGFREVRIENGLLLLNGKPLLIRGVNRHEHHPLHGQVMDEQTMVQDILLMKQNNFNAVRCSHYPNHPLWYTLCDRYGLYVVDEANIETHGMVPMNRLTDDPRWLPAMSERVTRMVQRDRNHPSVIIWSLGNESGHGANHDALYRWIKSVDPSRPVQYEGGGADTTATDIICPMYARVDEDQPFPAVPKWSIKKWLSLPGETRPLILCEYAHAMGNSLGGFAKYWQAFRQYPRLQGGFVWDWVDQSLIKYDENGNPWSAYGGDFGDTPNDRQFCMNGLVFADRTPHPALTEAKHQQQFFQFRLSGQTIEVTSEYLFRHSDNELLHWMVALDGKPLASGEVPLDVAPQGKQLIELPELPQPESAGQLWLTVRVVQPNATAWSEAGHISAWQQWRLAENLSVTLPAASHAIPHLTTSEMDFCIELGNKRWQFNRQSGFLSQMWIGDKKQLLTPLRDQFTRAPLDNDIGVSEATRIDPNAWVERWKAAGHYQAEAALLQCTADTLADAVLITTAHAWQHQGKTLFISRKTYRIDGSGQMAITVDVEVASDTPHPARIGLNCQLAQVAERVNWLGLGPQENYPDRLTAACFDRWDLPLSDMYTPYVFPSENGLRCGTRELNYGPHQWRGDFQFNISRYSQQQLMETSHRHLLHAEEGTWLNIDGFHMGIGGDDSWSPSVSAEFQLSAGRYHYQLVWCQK

[9] = biological target: Type-1 angiotensin II receptor (Homo sapiens, UniProt P30556); assay: antagonism of angiotensin II type 1 receptor – cell-based, uHTS hits, selectivity assay for APJ receptor antagonist project, dose response (AID 463214); format: functional;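 also: antagonist potency against angiotensin II stimulated AT1 response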
Sequence of Type-1 angiotensin II receptor (P30556 whole entry, the tested form may be a part): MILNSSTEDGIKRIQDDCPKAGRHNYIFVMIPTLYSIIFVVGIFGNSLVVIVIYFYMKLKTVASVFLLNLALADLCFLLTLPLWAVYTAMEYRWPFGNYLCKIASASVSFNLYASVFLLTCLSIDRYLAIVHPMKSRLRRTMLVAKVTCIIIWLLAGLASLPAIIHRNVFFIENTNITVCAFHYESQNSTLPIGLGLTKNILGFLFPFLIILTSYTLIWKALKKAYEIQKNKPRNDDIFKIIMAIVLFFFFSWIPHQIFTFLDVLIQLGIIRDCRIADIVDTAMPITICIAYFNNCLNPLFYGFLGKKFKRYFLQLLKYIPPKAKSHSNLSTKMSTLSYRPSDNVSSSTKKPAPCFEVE

[10] = blockers of HIV-1 ZM109 envelope-driven cell-cell fusion – HeLa effector, CEM target cells, luciferase, cherry-pick, dose response (AID 652058); format: functional, cell-based;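 also: luciferase signal from HIV-1 Env mediated cell-cell fusion of effector and target cells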
[11] = HIV-1 AD8 envelope cell-cell fusion blockers – cherry-pick, dose response (AID 652062); format: functional, cell-based;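 also: luciferase signal from cell-cell fusion driven by HIV-1 clade B AD8 Env; potency is for inhibitors of fusion seen as a drop in luminescence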
[12] = off-target signal loss in HeLa-CEM21 co-culture – HeLa F-luc CTL cells, cherry-picked, counter-screen for HIV-1 Env fusion inhibitor project, dose response (AID 652040); format: functional, cell-based;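 also: potency for signal decrease marking cytotoxic or nonspecific inhibition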
[13] = blockers of HIV-1 envelope-mediated cell-cell fusion – cherry-pick, dose response (AID 652057); format: functional, cell-based
[14] = biological target: Beta-2 adrenergic receptor (Homo sapiens, UniProt P07550); assay: ADRB2 activation measured by internalization – cell-based, FAP fluorogen, flow cytometry, cherry pick 1, dose response (AID 588763); format: functional
Sequence of Beta-2 adrenergic receptor (P07550 whole entry): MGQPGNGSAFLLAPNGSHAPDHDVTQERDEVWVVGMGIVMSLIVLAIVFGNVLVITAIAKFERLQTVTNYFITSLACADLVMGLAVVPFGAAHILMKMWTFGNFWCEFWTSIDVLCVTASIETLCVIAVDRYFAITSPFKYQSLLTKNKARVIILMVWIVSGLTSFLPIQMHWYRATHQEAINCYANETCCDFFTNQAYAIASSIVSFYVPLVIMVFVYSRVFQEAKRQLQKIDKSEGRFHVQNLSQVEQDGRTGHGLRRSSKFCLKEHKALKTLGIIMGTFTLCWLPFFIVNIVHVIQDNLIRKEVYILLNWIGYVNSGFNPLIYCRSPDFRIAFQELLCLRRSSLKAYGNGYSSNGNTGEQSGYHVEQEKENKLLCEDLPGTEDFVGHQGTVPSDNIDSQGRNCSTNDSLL

HEK293 [15] = assay: cells; format: functional, cell-based; details: Homo sapiens
[16] = biological target: Nuclear receptor subfamily 0 group B member 1 (Homo sapiens, UniProt P51843); assay: Luminescence-based cell-based high throughput dose response assay for inhibitors of the orphan nuclear receptor subfamily 0, group B, member 1 (DAX1; NR0B1). [Related pubchem assays (depositor defined):AID504766, AID504790]; format: functional
Sequence of Nuclear receptor subfamily 0 group B member 1 (P51843 whole entry): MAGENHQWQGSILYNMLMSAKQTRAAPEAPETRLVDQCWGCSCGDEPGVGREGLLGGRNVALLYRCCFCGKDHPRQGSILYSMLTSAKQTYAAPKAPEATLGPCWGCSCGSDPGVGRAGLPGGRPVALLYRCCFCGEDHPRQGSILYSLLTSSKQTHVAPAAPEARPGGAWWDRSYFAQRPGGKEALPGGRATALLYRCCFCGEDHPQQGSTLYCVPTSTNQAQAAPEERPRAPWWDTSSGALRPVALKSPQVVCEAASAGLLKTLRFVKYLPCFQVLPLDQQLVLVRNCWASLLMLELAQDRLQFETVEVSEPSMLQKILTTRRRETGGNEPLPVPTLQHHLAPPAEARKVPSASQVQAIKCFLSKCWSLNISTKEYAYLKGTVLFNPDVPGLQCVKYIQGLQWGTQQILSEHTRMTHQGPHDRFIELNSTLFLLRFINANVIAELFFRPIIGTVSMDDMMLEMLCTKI

[17] = HepG2 cell cytotoxicity, dose response, cytotoxicity control for non-replicating M. tuberculosis project (AID 489018); format: functional; details: Mycobacterium tuberculosis
cells = format: functional
[18] = biological target: Glycogen synthase kinase-3 beta (Homo sapiens, UniProt P49841); assay: Inhibition of Human GSK-3 beta Activity Measured in Biochemical System Using Microfluidics - 2063-05_Inhibitor_Dose_DryPowder_Activity. [Related pubchem assays (depositor defined):AID2709]
Sequence of Glycogen synthase kinase-3 beta (P49841 whole entry): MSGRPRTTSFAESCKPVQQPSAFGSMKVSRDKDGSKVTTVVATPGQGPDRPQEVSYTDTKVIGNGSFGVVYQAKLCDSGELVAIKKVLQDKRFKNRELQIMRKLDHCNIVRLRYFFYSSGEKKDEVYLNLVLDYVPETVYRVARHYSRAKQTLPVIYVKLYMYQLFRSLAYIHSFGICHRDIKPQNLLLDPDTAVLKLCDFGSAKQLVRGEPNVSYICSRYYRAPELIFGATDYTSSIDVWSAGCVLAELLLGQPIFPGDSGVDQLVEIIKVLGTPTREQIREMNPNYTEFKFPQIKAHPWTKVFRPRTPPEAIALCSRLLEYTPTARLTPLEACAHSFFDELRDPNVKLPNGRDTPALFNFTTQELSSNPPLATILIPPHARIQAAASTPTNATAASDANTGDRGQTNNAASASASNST

[19] = biological target: Glycogen synthase kinase-3 alpha (Homo sapiens, UniProt P49840); assay: Inhibition of Human GSK-3 alpha Activity Measured in Biochemical System Using Microfluidics - 2063-06_Inhibitor_Dose_DryPowder_Activity. [Related pubchem assays (depositor defined):AID2709]
Sequence of Glycogen synthase kinase-3 alpha (P49840 whole entry): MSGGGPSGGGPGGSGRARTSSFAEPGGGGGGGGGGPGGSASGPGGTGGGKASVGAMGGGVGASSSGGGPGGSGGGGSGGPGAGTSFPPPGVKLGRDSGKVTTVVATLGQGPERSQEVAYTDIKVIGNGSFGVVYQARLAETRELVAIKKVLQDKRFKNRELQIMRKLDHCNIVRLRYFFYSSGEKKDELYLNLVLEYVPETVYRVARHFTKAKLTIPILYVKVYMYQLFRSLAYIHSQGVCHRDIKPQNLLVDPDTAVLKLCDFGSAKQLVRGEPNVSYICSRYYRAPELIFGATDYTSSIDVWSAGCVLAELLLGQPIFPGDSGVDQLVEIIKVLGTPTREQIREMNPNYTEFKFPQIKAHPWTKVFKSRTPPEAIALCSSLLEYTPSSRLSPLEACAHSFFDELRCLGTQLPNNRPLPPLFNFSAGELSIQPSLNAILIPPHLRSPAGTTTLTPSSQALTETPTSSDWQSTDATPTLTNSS

[20] = THP-1 cell cytotoxicity, dose response, cytotoxicity control for non-replicating M. tuberculosis project (AID 489025); format: functional
[21] = Vero E6 cell cytotoxicity, dose response, cytotoxicity control for non-replicating M. tuberculosis project, secondary assay (AID 492998); format: functional, VeroE6; details: Vero C1008
HEK293 [22] = assay: SAR Analysis of small molecule inhibitors of T-cell specific antigen receptor-induced NF-kB activation in a HEK-293T cell line using a luminescence assay - Set 2. [Related pubchem assays (depositor defined):AID435003, AID435012, AID489026]; format: functional, cell-based; details: Homo sapiens
HEK293 [23] = assay: HEK293T cell viability loss, resazurin readout – resazurin fluorescence, cytotoxicity control for NF-kB activator project, SAR follow-up (AID 493251); format: functional, cell-based; details: Homo sapiens
Jurkat = assay: SAR Analysis of small molecule inhibitors of T-cell specific antigen receptor-induced NF-kB activation in a Jurkat cell line using a luminescence assay - Set 2. [Related pubchem assays (depositor defined):AID435003, AID435012, AID465]; format: functional, cell-based; details: Homo sapiens

For Cc1c(C#N)c(NC(=O)CCl)n(Cc2ccc(F)cc2)c1C, the AC50 (A-375 [1]) was > 35 µM (active), the AC50 [2] was 7.16 µM (active) and the AC50 (A-375 [3]) was > 35 µM (active). The AC50 [4] was 15.2 µM (active), the EC50 (Protein RecA) was 4.23 µM (active) and the EC50 (BJ [5]) was 1.88 µM (inconclusive). The EC50 (BJ [6]) was 16.7 µM (active), the EC50 (BJ [7]) was > 150 µM (inconclusive) and the EC50 [8] was 12.1 µM (active).

In the case of O=C(CNc1ccc(F)cc1)c1ccccc1, the EC50 (Beta-galactosidase) is reported as > 40 µM (inactive), the IC50 [9] is reported as 7.06 µM (active) and the AC50 [10] is reported as 1.17 µM (active). For the same compound, the AC50 [11] was 4.61 µM (active), the AC50 [12] was 1.57 µM (active) and the AC50 [13] was 1.54 µM (active).

With CN(CCOc1ccc(-c2ccn(S(=O)(=O)c3cccc4ccccc34)n2)cc1)c1ccccn1 the EC50 [14] was 2.53 µM (active).

For c1ccc(N2CCN(c3ccccc3)C2c2cccs2)cc1, the IC50 (HEK293 [15]) was > 67.5 µM (inactive) and the IC50 [16] was > 67.5 µM (inactive).

With O=C1Nc2cc(C(=O)NCCN3CCCCCC3)ccc2S/C1=C\c1ccccc1 the CC50 [17] was 12.1 µM (active), the IC50 (cells) was 37.8 µM (active) and the AC50 [2] was 9.78 µM (active). For the same compound, the AC50 [18] was 2.29 µM (active), the AC50 [19] was 63.7 µM (active) and the CC50 [20] was 6.89 µM (active). The CC50 [21] was 12.5 µM (active).

With NS(=O)(=O)c1ccc(NC(=O)c2ccc([N+](=O)[O-])o2)cc1 the IC50 (HEK293 [22]) was 20.5 µM (inactive), the IC50 (HEK293 [23]) was 71.3 µM (inactive) and the IC50 (Jurkat) was 17.4 µM (active).
